Each structure is given as a SMILES string. The source made the active and inactive calls. Some results are limits rather than exact numbers.

These results are taken from ChEMBL document CHEMBL1201862, “PubChem BioAssay data set” (2004).

Experiment [1] deals with T1, Fatty acid synthase (Homo sapiens, UniProt P49327). Put plainly: inhibition of human FAS-TE enzyme activity – biochemical, endpoint fluorescence intensity, uHTS hits, dose response (AID 624327).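 Note: fluorescence from hydrolysis of an O-methyl fluorescein acyl ester substrate by the enzyme.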 The class given is functional.
Experiment [2] concerns the target T1, Fatty acid synthase. Description: inhibition of human FAS-TE enzyme activity – biochemical, kinetic fluorescence intensity, dose response (AID 624326).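 Note: rate of fluorescence rise from hydrolysis of a fluorogenic O-methyl fluorescein ester substrate.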 The class given is functional.
Experiment [3] is described as follows: blockade of melanocortin 4 receptor signaling – cell-based, plate reader, cherry pick, counter-screen for LGR2 antagonist project, dose response (AID 743444).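 Note: transfected HEK 293 cells stimulated with alpha-MSH peptide; potency of inhibitors of the alpha-MSH evoked signal.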 The class given is functional.
Experiment [4] deals with T2, Microphthalmia-associated transcription factor (Homo sapiens, UniProt O75030).
T2 sequence (O75030 whole entry): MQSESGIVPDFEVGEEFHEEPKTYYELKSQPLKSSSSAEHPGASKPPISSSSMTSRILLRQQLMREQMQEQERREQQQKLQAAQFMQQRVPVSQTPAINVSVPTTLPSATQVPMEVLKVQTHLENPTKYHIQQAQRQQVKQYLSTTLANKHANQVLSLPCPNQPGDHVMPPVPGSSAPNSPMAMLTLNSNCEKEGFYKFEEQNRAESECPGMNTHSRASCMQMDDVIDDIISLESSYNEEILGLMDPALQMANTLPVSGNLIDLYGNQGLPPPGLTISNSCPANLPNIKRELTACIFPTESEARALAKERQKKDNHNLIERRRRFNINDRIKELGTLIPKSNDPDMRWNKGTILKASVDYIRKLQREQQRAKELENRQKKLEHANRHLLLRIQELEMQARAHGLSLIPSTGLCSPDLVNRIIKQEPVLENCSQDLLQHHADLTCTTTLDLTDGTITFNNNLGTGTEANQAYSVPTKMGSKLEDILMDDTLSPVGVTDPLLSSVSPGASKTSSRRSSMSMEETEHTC
Put plainly: reducers of TRPM1 reporter luminescence, concentration series – cell-based, SK-MEL-5, cherry-picked, set 3, MITF inhibitor project, dose response (AID 493073).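 Note: SK-MEL-5 melanoma cells with luciferase driven by the MITF target TRPM1 promoter.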 Format: functional.

A short description of experiment [5]: A549 cell cytotoxicity, dose response, cytotoxicity control, plate reader, cherry-pick, antagonist series (AID 743412). The class given is functional, cell-based.
Experiment [6] can be described thus: reduced cellular PGC1a acetyl-lysine signal – cell-based, cherry-picked samples, dose response (AID 720514).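 Note: potency may reflect raised or lowered acetylation signal.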 The class given is functional.
Experiment [7] in a line: toxicity toward HepG2 liver cells – cell-based, plate reader, cherry-pick, antagonist series, cytotoxicity control, dose response (AID 743416). Format: functional.
A short description of experiment [8]: viability loss in HEK293 cells – cell-based, plate reader, cherry-picked samples, cytotoxicity control, dose response (AID 743446). The class given is functional.
Experiment [9] is described as follows: blockers of bursicon-stimulated LGR2 cAMP reporter – cell-based, HEK293, CRE-luciferase reporter, cherry pick, set 2, dose response (AID 743343).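 Note: transfected cells were stimulated with diluted bursicon conditioned medium after compound addition.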 Format: functional.
In experiment [10] the target is T3, fMet-Leu-Phe receptor (Homo sapiens, UniProt P21462).
T3 sequence (P21462 whole entry): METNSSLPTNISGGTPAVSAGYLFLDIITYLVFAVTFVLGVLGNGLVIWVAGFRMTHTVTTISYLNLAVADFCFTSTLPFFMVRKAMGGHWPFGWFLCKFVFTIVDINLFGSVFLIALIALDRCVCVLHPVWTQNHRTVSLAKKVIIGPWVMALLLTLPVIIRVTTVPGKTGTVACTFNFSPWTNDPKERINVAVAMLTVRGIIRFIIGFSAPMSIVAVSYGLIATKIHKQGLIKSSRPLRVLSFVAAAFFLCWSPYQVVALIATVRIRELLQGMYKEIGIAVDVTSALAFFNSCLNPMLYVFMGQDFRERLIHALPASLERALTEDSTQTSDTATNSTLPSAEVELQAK
Put plainly: formyl peptide receptor binders – dose response (AID 519). The class given is functional.

Experiment [11] has as its target T4, Sentrin-specific protease 6 (Homo sapiens, UniProt Q9GZR1).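 Note: Luminescence-based dose-response confirmatory assay of SENP6 inhibition, following up an ultra-high-throughput screen.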
T4 sequence (Q9GZR1 whole entry): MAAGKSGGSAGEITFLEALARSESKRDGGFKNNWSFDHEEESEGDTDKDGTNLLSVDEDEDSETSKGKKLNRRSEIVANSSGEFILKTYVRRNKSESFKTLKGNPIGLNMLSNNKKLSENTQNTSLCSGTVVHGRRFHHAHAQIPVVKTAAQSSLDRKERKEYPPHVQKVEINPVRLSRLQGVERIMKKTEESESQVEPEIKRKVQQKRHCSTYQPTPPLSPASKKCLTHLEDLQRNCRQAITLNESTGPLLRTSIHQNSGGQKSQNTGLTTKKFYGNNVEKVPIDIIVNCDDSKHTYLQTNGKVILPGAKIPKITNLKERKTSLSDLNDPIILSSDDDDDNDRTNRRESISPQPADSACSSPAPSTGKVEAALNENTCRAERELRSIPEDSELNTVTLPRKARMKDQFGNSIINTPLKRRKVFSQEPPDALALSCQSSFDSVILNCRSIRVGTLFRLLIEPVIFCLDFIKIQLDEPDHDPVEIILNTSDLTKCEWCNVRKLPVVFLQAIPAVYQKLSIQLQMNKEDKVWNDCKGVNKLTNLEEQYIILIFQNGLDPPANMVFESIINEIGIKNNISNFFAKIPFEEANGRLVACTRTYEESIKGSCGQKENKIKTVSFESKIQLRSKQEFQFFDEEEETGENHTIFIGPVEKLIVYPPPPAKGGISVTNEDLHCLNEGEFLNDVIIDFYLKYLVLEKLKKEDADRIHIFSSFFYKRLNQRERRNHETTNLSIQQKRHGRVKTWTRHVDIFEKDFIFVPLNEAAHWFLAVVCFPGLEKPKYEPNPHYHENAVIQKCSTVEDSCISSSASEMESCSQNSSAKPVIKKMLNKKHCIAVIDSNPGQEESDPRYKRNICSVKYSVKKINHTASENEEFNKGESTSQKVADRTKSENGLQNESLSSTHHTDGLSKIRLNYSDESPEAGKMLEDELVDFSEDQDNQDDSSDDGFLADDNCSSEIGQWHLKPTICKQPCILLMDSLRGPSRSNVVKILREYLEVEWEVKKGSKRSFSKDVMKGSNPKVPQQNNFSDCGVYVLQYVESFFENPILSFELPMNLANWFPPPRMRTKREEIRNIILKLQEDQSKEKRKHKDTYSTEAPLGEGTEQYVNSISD
The class given is functional.

Experiment [12] addresses T5, Caspase-3 (Homo sapiens, UniProt P42574).
T5 sequence (P42574 whole entry): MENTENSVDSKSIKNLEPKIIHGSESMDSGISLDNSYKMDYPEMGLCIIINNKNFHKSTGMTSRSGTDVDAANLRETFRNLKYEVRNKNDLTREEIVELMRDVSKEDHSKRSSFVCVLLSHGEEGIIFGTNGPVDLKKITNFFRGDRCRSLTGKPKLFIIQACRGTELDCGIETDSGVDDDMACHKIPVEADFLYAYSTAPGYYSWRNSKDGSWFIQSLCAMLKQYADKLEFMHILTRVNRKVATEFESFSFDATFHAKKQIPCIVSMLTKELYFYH
The class given is functional.

In experiment [13] the target is T6, Sentrin-specific protease 8 (Homo sapiens, UniProt Q96LD8).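 Note: luminescence read-out of SENP8 inhibition, dose-response confirmation following an ultra-high-throughput screen.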
T6 sequence (Q96LD8 whole entry): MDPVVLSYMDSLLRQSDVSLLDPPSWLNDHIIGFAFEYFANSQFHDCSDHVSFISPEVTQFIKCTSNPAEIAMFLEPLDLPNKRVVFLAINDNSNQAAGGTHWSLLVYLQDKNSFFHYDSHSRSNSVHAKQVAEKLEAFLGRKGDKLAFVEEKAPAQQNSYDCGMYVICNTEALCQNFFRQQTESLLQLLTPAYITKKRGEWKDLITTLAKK
Format: functional.

Experiment [14] deals with T7, Sentrin-specific protease 7 (Homo sapiens, UniProt Q9BQF6).
T7 sequence (Q9BQF6 whole entry): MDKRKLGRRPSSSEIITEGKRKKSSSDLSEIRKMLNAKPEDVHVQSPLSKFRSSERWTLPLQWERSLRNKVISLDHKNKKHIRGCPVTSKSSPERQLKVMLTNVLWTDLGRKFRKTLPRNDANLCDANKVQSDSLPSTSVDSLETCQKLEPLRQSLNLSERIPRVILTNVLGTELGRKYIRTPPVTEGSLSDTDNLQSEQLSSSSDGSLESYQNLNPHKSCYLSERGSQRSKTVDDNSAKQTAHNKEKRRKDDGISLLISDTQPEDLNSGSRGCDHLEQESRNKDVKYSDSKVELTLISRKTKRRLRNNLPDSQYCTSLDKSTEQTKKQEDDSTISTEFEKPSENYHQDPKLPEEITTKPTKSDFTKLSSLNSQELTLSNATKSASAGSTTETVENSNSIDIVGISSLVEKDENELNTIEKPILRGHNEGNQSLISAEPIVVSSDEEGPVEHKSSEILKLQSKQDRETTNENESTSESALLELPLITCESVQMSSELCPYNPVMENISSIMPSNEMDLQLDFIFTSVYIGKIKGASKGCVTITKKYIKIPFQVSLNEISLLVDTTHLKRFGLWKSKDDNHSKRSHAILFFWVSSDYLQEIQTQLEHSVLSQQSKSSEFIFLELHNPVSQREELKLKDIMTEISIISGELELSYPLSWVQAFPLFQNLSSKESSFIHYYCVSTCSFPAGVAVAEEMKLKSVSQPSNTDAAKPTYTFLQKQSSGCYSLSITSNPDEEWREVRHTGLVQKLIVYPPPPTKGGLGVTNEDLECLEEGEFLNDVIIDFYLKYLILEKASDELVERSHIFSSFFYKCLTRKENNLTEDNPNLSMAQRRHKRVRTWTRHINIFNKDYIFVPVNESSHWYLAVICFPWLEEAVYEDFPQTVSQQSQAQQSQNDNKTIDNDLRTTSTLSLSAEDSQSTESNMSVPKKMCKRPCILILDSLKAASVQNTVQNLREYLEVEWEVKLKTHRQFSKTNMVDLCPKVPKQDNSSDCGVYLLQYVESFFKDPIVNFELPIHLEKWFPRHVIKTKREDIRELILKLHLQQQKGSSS
The class given is functional.

Experiment [15] deals with BJ. Description: cells. The following applies: Homo sapiens. Format: functional, cell-based.
For experiment [16], the system named is BJ. Description: growth inhibition of engineered Ras-driven BJ cells – cell-based, alamar blue fluorescence, cherrypicked samples, dose response (AID 2631).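 Note: confirmatory dose-response assay in RAS-dependent BJ fibroblasts engineered with TERT, LT and ST, with cytotoxicity read by fluorescence.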 The class given is functional. The note with it: Homo sapiens.
In experiment [17] the test system is BJ. Description: BJ-TERT fibroblast viability loss – cell-based, RAS-independent, luminescence, dose response (AID 1933). The class given is functional. The note with it: Homo sapiens.
For experiment [18], the system named is BJ. Description: BJ-TERT-LT-ST fibroblast viability loss – cell-based, RAS-independent, luminescence, dose response (AID 1935).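 Note: BJ fibroblasts immortalized with TERT plus LT and ST oncogenes.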 The class given is functional. The note with it: Homo sapiens.
Experiment [19] can be described thus: DRD fibroblast viability loss – cell-based, non-viral oncogenic, luminescence, dose response (AID 1934). The class given is functional. The note with it: Homo sapiens.

T1 sequence (P49327 whole entry): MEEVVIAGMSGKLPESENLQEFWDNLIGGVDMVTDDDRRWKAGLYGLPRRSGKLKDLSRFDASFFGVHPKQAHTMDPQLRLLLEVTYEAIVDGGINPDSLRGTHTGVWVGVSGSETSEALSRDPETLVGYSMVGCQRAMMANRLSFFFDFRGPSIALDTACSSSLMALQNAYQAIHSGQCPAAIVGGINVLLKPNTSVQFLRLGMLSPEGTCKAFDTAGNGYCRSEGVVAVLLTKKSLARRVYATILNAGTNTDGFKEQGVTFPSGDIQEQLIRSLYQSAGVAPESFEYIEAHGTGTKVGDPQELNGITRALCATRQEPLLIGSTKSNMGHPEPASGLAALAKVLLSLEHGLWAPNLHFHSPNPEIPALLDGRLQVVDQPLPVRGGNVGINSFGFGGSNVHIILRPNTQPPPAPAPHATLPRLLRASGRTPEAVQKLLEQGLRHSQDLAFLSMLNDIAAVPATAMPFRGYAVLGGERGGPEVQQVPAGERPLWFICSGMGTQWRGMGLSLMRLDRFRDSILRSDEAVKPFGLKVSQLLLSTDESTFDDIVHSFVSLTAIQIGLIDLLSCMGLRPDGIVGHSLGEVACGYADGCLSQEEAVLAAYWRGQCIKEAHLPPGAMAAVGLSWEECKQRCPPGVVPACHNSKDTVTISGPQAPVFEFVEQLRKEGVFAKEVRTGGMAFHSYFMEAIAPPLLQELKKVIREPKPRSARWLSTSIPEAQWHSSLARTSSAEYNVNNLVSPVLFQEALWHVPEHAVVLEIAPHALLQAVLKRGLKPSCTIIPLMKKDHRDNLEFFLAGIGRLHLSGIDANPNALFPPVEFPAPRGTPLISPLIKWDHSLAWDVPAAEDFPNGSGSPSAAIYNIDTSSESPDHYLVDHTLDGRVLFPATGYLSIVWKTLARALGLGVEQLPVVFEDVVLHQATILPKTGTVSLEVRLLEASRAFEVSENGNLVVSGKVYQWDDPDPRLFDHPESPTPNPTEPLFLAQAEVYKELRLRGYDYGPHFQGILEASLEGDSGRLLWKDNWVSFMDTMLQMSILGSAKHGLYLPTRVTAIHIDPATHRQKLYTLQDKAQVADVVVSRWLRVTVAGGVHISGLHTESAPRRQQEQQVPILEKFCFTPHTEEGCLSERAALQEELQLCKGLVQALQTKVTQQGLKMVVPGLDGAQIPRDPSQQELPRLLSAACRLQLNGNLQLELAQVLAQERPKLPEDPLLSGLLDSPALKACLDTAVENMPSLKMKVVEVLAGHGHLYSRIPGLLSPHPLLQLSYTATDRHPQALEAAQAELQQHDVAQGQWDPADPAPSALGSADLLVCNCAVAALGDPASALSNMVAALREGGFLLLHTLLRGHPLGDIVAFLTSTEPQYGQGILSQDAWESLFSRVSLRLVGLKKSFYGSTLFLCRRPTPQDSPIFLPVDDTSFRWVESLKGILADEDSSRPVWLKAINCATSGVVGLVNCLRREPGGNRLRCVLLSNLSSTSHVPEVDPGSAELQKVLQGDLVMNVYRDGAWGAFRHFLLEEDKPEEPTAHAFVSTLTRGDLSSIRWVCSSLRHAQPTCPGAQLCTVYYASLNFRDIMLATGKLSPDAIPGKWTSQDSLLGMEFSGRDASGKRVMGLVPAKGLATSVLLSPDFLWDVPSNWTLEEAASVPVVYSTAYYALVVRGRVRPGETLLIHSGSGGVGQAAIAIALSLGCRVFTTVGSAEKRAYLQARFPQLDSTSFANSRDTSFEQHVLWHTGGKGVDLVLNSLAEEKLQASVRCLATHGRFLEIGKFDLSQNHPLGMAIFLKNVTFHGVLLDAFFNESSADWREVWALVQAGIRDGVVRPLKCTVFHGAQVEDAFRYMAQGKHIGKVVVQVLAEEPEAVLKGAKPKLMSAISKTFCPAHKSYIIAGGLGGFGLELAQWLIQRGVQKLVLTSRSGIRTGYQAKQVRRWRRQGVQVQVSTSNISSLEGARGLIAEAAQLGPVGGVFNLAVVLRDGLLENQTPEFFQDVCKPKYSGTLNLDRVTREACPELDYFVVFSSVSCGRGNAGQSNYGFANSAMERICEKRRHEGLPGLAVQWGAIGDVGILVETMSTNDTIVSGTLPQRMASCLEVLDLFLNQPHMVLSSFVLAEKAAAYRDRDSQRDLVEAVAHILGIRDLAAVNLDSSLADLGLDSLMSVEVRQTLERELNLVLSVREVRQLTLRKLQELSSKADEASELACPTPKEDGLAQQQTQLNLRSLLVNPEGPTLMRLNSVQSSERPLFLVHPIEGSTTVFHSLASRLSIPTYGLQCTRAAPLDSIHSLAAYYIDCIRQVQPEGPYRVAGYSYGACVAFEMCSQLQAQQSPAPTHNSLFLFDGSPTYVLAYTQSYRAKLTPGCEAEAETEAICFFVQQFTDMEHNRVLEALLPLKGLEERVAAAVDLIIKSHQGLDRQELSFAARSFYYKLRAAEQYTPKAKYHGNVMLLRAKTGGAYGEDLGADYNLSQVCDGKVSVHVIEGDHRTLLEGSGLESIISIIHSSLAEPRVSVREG

As to `COc1ccc([N+](=O)[O-])cc1NC(=O)CCC(=O)c1cccs1`, the half-inhibitory concentration (IC50) in experiment [1] was 9.16 µM (active); in [2], 9.62 µM (active).

As to `Cn1nnnc1Sc1ncnc2scc(-c3ccc(C#N)cc3)c12`, the half-maximal activity concentration (AC50) was 3.6 µM (active) in experiment [3]; 4.98 µM (active) in [4]; 7.28 µM (active) in experiment [5]; 8.12 µM (active) in [6]; 7.68 µM (active) in experiment [7]; 10.9 µM (active) in experiment [8]. The half-maximal activity concentration (AC50) in experiment [9] was 5.18 µM (active).

`COc1ccccc1-n1c(CNC(=O)c2ccco2)nnc1SCC(=O)Nc1ccc(F)cc1`: the Ki in experiment [10] is 63.3 µM (inactive).

As for `CCCCn1c(NC(C)=O)c(C#N)c2nc3ccccc3nc21`, in experiment [10], the Ki is 45.7 µM (inactive).

Take `c1ccc(Nc2nnc(-c3cccc4ccccc34)o2)cc1`: the IC50 in experiment [11], in experiment [12], in experiment [13] and in experiment [14] was > 100 µM (inactive) throughout.

Take `O=C(/C=C/c1ccc(F)cc1)NNC(=O)CCN1CCN(Cc2ccccc2)CC1`: the EC50 in experiment [15] is 3.53 µM (active); in experiment [16], > 133 µM (inactive); in [17], 19.1 µM (active); in [18], 2.15 µM (active); in experiment [19] it was 2.92 µM (active).

As to `Brc1nc(-c2ccccc2)nc(-c2ccccc2)c1Br`, the concentration for a half-maximal effect (EC50) was 14 µM (active) in experiment [15]; 4.95 µM (active) in experiment [16]; 8.57 µM (inconclusive) in experiment [17]; 7.93 µM (inconclusive) in [18]; 10.2 µM (active) in experiment [19].

On to `COC(=O)c1ccc(CSc2nc(C(F)F)cc(C)c2C#N)o1`, for which the IC50 in [1] is 17.2 µM (active); in experiment [2], 18.6 µM (active).

Consider `Cc1cc2oc(C(=O)NC3CCS(=O)(=O)C3)c(C)c2cc1C` (centres undefined), for which, in experiment [10], the Ki was > 66.7 µM (inactive).

`COc1ccc(-c2nnc(SCc3ccccc3F)o2)cc1`: the IC50 in [11] is 12 µM (active); in experiment [12] it was 16.1 µM (active); in [13] it was 12.2 µM (active); in experiment [14], 4.23 µM (active).

As for `Fc1ccc(-c2nnc3ccc(N4CCCC4)nn23)cc1`, the Ki in experiment [10] was > 66.7 µM (inactive).

As for `CC1=C(C(=O)OCC(Br)(Br)Br)C(c2cccc([N+](=O)[O-])c2)NC(=O)N1CCCC(=O)O` (centres undefined), the concentration for half-maximal inhibition (IC50) was 7.69 µM (active) in experiment [1] and 5.05 µM (active) in [2].

Take `COc1ccc(-c2cnc3c(c2)C(=O)N([C@H](C)CO)C[C@H](C)[C@@H](CN(C)C(=O)C2CCC2)O3)cc1`: the AC50 in [6] was 25.8 µM (active).

For `O=C(Nc1cccc(F)c1)c1ccc(-c2ccccc2Cl)o1`, the IC50 in [11] is 42 µM (active); in experiment [12], 47 µM (active); in experiment [13], 53.7 µM (active); in experiment [14], 7.07 µM (active).

Regarding `CCOC(=O)CC(NC(=O)c1cc2ccccc2oc1=O)c1cccc([N+](=O)[O-])c1` (centres undefined), the IC50 was 16.7 µM (active) in [1] and 15.5 µM (active) in [2].

Turning to `O=[N+]([O-])c1ccc(S(=O)(=O)NN=Cc2ccc3c(c2)OCO3)cc1`, the IC50 in experiment [1] was 5.4 µM (active); in [2], 5.8 µM (active).
